Test results: ChEMBL document CHEMBL5126557, “Design, synthesis, and bio-evaluation of novel triterpenoid derivatives as anti-HIV-1 compounds” (Bioorg Med Chem Lett, 2022)

Tests used:
[1] = Selectivity index, ratio of CC50 for human TZM-bl cells to IC50 for IC50 for antiviral activity against HIV-1 89.6 infected in human TZM-bl cells; assay type: toxicity, cell-based; conditions: read-out: Ratio CC50/IC50
[2] = Cytotoxicity against human TZM-bl cells assessed as reduction in cell viability by CellTitre-Glo assay; assay type: toxicity, cell-based
[3] = system: Human immunodeficiency virus 1; test: Antiviral activity against HIV-1 89.6 infected in human TZM-bl cells assessed as reduction in viral replication; assay type: functional, organism-based; conditions: Human immunodeficiency virus 1, 89.6, TZM-bl
[4] = system: Human immunodeficiency virus 1; test: Antiviral activity against HIV-1 YU2 […] infected in human TZM-bl cells assessed as reduction in viral replication; assay type: functional, organism-based; conditions: Human immunodeficiency virus 1, YU2[…]
[5] = system: Human immunodeficiency virus 1; test: Antiviral activity against HIV-1 NL4-3(X4) infected in human TZM-bl cells assessed as reduction in viral replication; assay type: functional, organism-based; conditions: Human immunodeficiency virus 1, NL4-3(X4)
[6] = system: Human immunodeficiency virus 1; test: Synergistic antiviral activity against HIV-1 89.6 infected in human TZM-bl cells assessed as combination index at 45:1 compound and KD-247 antibody ratio; assay type: functional
[7] = system: Human immunodeficiency virus 1; test: Synergistic antiviral activity against HIV-1 89.6 infected in human TZM-bl cells assessed as compound dose reduction index at 45:1 compound and 4E10 antibody ratio; assay type: functional
[8] = system: Human immunodeficiency virus 1; test: Synergistic antiviral activity against HIV-1 89.6 infected in human TZM-bl cells assessed as combination index at 45:1 compound and 2F5 antibody ratio; assay type: functional
[9] = system: Human immunodeficiency virus 1; test: Synergistic antiviral activity against HIV-1 89.6 infected in human TZM-bl cells assessed as combination index at 45:1 compound and 2G12 antibody ratio; assay type: functional
[10] = system: Human immunodeficiency virus 1; test: Synergistic antiviral activity against HIV-1 89.6 infected in human TZM-bl cells assessed as combination index at 45:1 compound and 4E10 antibody ratio; assay type: functional
[11] = system: Human immunodeficiency virus 1; test: Synergistic antiviral activity against HIV-1 89.6 infected in human TZM-bl cells assessed as antibody dose reduction index at 45:1 compound and 447-52D antibody ratio; assay type: functional
[12] = system: Human immunodeficiency virus 1; test: Synergistic antiviral activity against HIV-1 89.6 infected in human TZM-bl cells assessed as antibody dose reduction index at 450:1 compound and b12 antibody ratio; assay type: functional
[13] = system: Human immunodeficiency virus 1; test: Synergistic antiviral activity against HIV-1 89.6 infected in human TZM-bl cells assessed as antibody dose reduction index at 45:1 compound and 2F5 antibody ratio; assay type: functional
[14] = system: Human immunodeficiency virus 1; test: Synergistic antiviral activity against HIV-1 89.6 infected in human TZM-bl cells assessed as combination index at 45:1 compound and 447-52D antibody ratio; assay type: functional
[15] = system: Human immunodeficiency virus 1; test: Synergistic antiviral activity against HIV-1 89.6 infected in human TZM-bl cells assessed as antibody dose reduction index at 45:1 compound and KD-247 antibody ratio; assay type: functional
[16] = system: Human immunodeficiency virus 1; test: Synergistic antiviral activity against HIV-1 89.6 infected in human TZM-bl cells assessed as compound dose reduction index at 45:1 compound and 2G12 antibody ratio; assay type: functional
[17] = system: Human immunodeficiency virus 1; test: Synergistic antiviral activity against HIV-1 89.6 infected in human TZM-bl cells assessed as compound dose reduction index at 45:1 compound and KD-247 antibody ratio; assay type: functional
[18] = system: Human immunodeficiency virus 1; test: Synergistic antiviral activity against HIV-1 89.6 infected in human TZM-bl cells assessed as compound dose reduction index at 45:1 compound and 447-52D antibody ratio; assay type: functional
[19] = system: Human immunodeficiency virus 1; test: Synergistic antiviral activity against HIV-1 89.6 infected in human TZM-bl cells assessed as compound dose reduction index at 450:1 compound and b12 antibody ratio; assay type: functional
[20] = system: Human immunodeficiency virus 1; test: Synergistic antiviral activity against HIV-1 89.6 infected in human TZM-bl cells assessed as compound dose reduction index at 45:1 compound and 2F5 antibody ratio; assay type: functional
[21] = system: Human immunodeficiency virus 1; test: Synergistic antiviral activity against HIV-1 89.6 infected in human TZM-bl cells assessed as antibody dose reduction index at 45:1 compound and 2G12 antibody ratio; assay type: functional
[22] = system: Human immunodeficiency virus 1; test: Synergistic antiviral activity against HIV-1 89.6 infected in human TZM-bl cells assessed as combination index at 450:1 compound and b12 antibody ratio; assay type: functional
[23] = system: Human immunodeficiency virus 1; test: Synergistic antiviral activity against HIV-1 89.6 infected in human TZM-bl cells assessed as antibody dose reduction index at 45:1 compound and 4E10 antibody ratio; assay type: functional

Work on `C=C(C)[C@@H]1CC[C@]2(C(=O)NCCCCCCCC(=O)N[C@@H](CC(C)C)[C@H](O)CC(=O)O)CC[C@]3(C)[C@H](CC[C@@H]4[C@@]5(C)CC[C@H](O)C(C)(C)[C@@H]5CC[C@]43C)[C@@H]12` yielded a selectivity ratio [1] of 45, a CC50 [2] of 8.9 µM and an IC50 [3] of 200 nM. The IC50 [4] was 5.8 µM and the IC50 [5] was 320 nM.
`CC(C)C[C@H](NC(=O)CCCCCCCNC(=O)[C@]12CCC(C)(C)C[C@H]1C1=CC[C@@H]3[C@@]4(C)CC[C@H](O)C(C)(C)[C@@H]4CC[C@@]3(C)[C@]1(C)CC2)[C@@H](O)CC(=O)O` gave a CI [6] of 0.75, an Activity_index [7] of 2.9 and a selectivity ratio [1] of 99. For the same compound, the CI [8] was 0.69, the CI [9] was 0.59 and the CI [10] was 0.59. It also gave an Activity_index [11] of 3.9, a CC50 [2] of 78 µM and an Activity_index [12] of 3.6. The Activity_index [13] was 2.7, the CI [14] was 0.59 and the Activity_index [15] was 2.9. It also gave an Activity_index [16] of 4.9, an IC50 [3] of 790 nM and an Activity_index [17] of 3.3. It also gave an Activity_index [18] of 3.8, an IC50 [4] of 25 µM and an Activity_index [19] of 3.2. It also gave an Activity_index [20] of 4.3, an IC50 [5] of 1700 nM and an Activity_index [21] of 3.1. It also gave a CI [22] of 0.68 and an Activity_index [23] of 5.5.
With `CC(C)C[C@H](NC(=O)CCCCCCCNC(=O)[C@@]1(C)CC[C@]2(C)CC[C@]3(C)C(=CC(=O)[C@@H]4[C@@]5(C)CC[C@H](O)C(C)(C)[C@@H]5CC[C@]43C)[C@@H]2C1)[C@@H](O)CC(=O)O` the CC50 [2] was > 300 µM, the IC50 [3] was > 100000 nM and the IC50 [4] was > 100 µM. For the same compound, the IC50 [5] was > 100000 nM.
For `CC(C)C[C@H](NC(=O)CCCCCCCNC(=O)[C@]12CCC(C)(C)C[C@H]1[C@H]1C(=O)C[C@@H]3[C@@]4(C)CC[C@H](O)C(C)(C)[C@@H]4CC[C@@]3(C)[C@]1(C)CC2)[C@@H](O)CC(=O)O`, the selectivity ratio [1] was 328, the CC50 [2] was 128 µM and the IC50 [3] was 390 nM. The IC50 [4] was 16 µM and the IC50 [5] was 500 nM.
Work on `CC(C)C[C@H](NC(=O)CCCCCCCNC(=O)[C@]12CC[C@@H](C)[C@H](C)[C@H]1C1=CC[C@@H]3[C@@]4(C)CC[C@H](O)C(C)(C)[C@@H]4CC[C@@]3(C)[C@]1(C)CC2)[C@@H](O)CC(=O)O` yielded a selectivity ratio [1] of 27, a CC50 [2] of 95 µM and an IC50 [3] of 3500 nM. The IC50 [4] was 43 µM and the IC50 [5] was 3700 nM.
In the case of `CC(C)C[C@H](NC(=O)CCCCCCCNC(=O)[C@@]1(C)CC[C@]2(C)CC[C@]3(C)C(=CC(=O)[C@@H]4[C@@]5(C)CC[C@H](O)C(C)(C)[C@@H]5CC[C@]43C)[C@@H]2C1)[C@H](O)CC(=O)O`, the CC50 [2] is reported as > 300 µM, the IC50 [3] is reported as > 100000 nM and the IC50 [4] is reported as > 100 µM. For the same compound, the IC50 [5] was > 100000 nM.
`CC(C)C[C@H](NC(=O)CCCCCCCNC(=O)[C@]12CC[C@@H](C)[C@H](C)[C@H]1C1=CC[C@@H]3[C@@]4(C)CC[C@H](O)C(C)(C)[C@@H]4CC[C@@]3(C)[C@]1(C)CC2)[C@H](O)CC(=O)O` gave a selectivity ratio [1] of 65, a CC50 [2] of 71 µM and an IC50 [3] of 1100 nM. It also gave an IC50 [4] of 40 µM and an IC50 [5] of 3900 nM.
Compound `CC(C)C[C@H](NC(=O)CCCCCCCNC(=O)[C@]12CCC(C)(C)C[C@H]1C1=CC[C@@H]3[C@@]4(C)CC[C@H](O)C(C)(C)[C@@H]4CC[C@@]3(C)[C@]1(C)CC2)[C@H](O)CC(=O)O` has a selectivity ratio [1] of 26, a CC50 [2] of 26 µM and an IC50 [3] of 1000 nM. The IC50 [4] was 42 µM and the IC50 [5] was 3200 nM.
Compound `C=C(C)[C@@H]1CC[C@]2(C(=O)NCCCCCCCC(=O)N[C@@H](CC(C)C)[C@@H](O)CC(=O)O)CC[C@]3(C)[C@H](CC[C@@H]4[C@@]5(C)CC[C@H](O)C(C)(C)[C@@H]5CC[C@]43C)[C@@H]12` has a selectivity ratio [1] of 100, a CC50 [2] of 17 µM and an IC50 [3] of 170 nM. For the same compound, the IC50 [4] was 80 µM and the IC50 [5] was 270 nM.
